Results: US20040259096A1, “Receptor capture assay” (priority 2001, published 2004)

Columns and labels:
Ah receptor = test: Detecting activated Ah receptor in nuclear extracts of treated Hepa 1c1c7 cells; type: cell-based, murine; settings: Hepa 1c1c7 cells treated with 10 μM BNF for 1 hour
Description: Hepa 1c1c7 cells were grown until nearly confluent in Dulbecco's modified Eagle's medium and 8% fetal bovine serum. The cells were treated with 10 μM beta-naphthoflavone (BNF) in DMSO for 1 hour. The cells were then harvested after two washes with ice-cold PBS by centrifugation at 1000×g. The cells were then suspended in 5 packed cell pellet volumes of 10 mM Hepes, pH 7.5 and allowed to stand for 10 min.
The suspended cells were again collected by centrifugation and resuspended in two packed cell pellet volumes of 25 mM Hepes, pH 7.5, 3 mM MgCl2, 1 mM DTT and then lysed with 10 strokes of a Kontes all glass Dounce homogenizer (B type pestle). The resulting homogenate was checked microscopically to confirm cell lysis and then centrifuged for 10 min at 1000×g to pellet the nuclei.
The nuclear extract was prepared as follows. The nuclei were resuspended and incubated for 30 min in 25 mM Hepes, pH 7.5, 3 mM MgCl2, 1 mM DTT containing 0.4 M KCl. The suspension was occasionally vortexed during the 30 min incubation and centrifuged in a microfuge at high speed. Glycerol was added to the supernatant to a 10% concentration. The nuclear extract was diluted to lower the salt concentration prior to testing. The diluent was Hepa 1c1c7 cell extract that was previously boiled in order to inactivate protein factors and cooled to room temperature. […]

AhR [1] = target: T1, AhR (Homo sapiens, UniProt P35869); settings: Van den Berg et al., 1998; cited from earlier work
T1 sequence (P35869 11-848): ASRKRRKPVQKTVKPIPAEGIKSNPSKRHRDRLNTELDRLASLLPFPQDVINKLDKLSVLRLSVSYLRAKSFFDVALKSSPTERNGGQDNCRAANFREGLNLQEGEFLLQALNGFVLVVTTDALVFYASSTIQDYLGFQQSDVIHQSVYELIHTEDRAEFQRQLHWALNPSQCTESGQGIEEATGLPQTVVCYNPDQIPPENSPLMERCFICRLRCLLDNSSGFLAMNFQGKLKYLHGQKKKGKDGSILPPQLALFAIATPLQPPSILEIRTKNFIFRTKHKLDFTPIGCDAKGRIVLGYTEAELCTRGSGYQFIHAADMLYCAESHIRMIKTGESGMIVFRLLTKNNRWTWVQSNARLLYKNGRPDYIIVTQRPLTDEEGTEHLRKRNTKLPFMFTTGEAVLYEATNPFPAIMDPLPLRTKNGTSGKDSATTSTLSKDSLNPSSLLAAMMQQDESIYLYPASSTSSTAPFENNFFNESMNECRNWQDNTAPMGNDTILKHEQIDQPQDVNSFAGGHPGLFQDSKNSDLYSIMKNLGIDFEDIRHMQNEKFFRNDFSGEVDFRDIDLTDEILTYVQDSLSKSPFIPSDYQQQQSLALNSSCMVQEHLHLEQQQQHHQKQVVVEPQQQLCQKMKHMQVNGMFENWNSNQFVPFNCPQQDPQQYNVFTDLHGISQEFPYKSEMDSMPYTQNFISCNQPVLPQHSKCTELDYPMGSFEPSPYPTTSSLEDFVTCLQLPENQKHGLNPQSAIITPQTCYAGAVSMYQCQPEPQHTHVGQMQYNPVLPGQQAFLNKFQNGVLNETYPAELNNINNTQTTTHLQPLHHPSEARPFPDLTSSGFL

AhR [2] = test: Receptor capture assay, real-time PCR, rodent cytosol as source of AhR; type: biochemical; settings: TCDD 625 ppt
AhR [3] = test: as above; type: biochemical
Description: A set of calibrators consisting of 5000, 2500, 1250, […], 313, 156, and 78 parts per trillion (ppt or pg/ml) 2,3,7,8-tetrachlorodibenzo-p-dioxin (TCDD) was prepared in methanol. In addition to TCDD a set of calibrators for AhR agonist, beta-naphthoflavone (BNF) was prepared and analyzed in the assay. Separately, 25 ul of 1:50,000 dilution of 10 uM stock nucleic acid-tracer was added per 1 ml of rodent cytosol, which was the source of AhR, and was aliquoted into glass tubes. The standards were diluted 1:20 into 50-100 ul of rodent cytosol, and incubated for 1-2 hr at room temperature to 37° C. Following incubation, 40 to 100 ul of the reaction was transferred to each well of the antibody-coated Capture Strip and incubated on a shaking platform for 30 min to 1 hr at room temperature. The Capture Strips were washed 5 times with Wash Buffer B, and aspirated; optionally soaking wells for 30 sec-5 min with wash buffer during each cycle. Taqman® Universal PCR Master Mix, primers, and Taqman® probe (Applied Biosystems, Calif.) were added, and adhesive cover applied. PCR was performed and analyzed using an ABI PRISM® 7700, using default settings: 50° C., 2 min, 95° C. 10 min, and 40 cycles of [95° C., 15 sec, 60° C., 60 sec]. A threshold cycle (Ct) was determined for each reaction The Ct represents the PCR cycle at which an increase in reporter fluorescence above baseline signal can first be detected.

SMILES	PCR-amplified DNA over nuclear extracts from DMSO-treated cells (Ah receptor)	toxic equivalency factor (TEF) value (AhR [1])	Ct Values (AhR [2])	Ct Values (AhR [3]; TCDD 78 ppt)	Ct Values (AhR [3]; TCDD 156 ppt)	Ct Values (AhR [3]; TCDD 313 ppt)	Ct Values (AhR [3]; TCDD 1250 ppt)	Ct Values (AhR [3]; TCDD 2500 ppt)	Ct Values (AhR [3]; TCDD 5000 ppt)
O=c1cc(-c2ccccc2)oc2ccc3ccccc3c12 [BNF, beta-naphthoflavone]	significant and reproducible increase in PCR-amplified DNA								
Clc1cc2c(cc1Cl)Oc1cc(Cl)c(Cl)cc1O2 [TCDD, 2,3,7,8-tetrachlorodibenzo-p-dioxin]		1	22.23	24.52	23.81	23.16	21.3	20.5	20.28
